# According to the kinase profiling compilation of Christmann-Franck et al. (2016):
# Key:
# Experiment in all cases: KINOMEscan competition binding
# Settings in all cases: compound 10.0 µM
# [1] = target: CDK5 (human) (UniProt Q00535)
# [2] = test system: FLT3 (human), P36888 [R834Q]
# [3] = test system: ABL1 (human), P00519 [E255K]
# [4] = target: CDK7 (human) (UniProt P50613)
# [5] = target: VRK2 (human) (UniProt Q86Y07)
# [6] = target: NEK3 (human) (UniProt P51956)
# [7] = target: WEE1 (human) (UniProt P30291)
# [8] = target: CDC42BPA (human) (UniProt Q5VT25)
# [9] = target: PRKCD (human) (UniProt Q05655)
# [10] = target: EPHB4 (human) (UniProt P54760)
# [11] = target: ACVR2B (human) (UniProt Q13705)
# [12] = target: CASK (human) (UniProt O14936)
# [13] = target: RPS6KA5 KD1 (human) (UniProt O75582)
# [14] = target: JAK3 JH1 catalytic (human) (UniProt P52333)
# [15] = target: MARK4 (human) (UniProt Q96L34)
# [16] = target: MATK (human) (UniProt P42679)
# [17] = target: PIM2 (human) (UniProt Q9P1W9)
# [18] = target: MARK3 (human) (UniProt P27448)
# [19] = target: CDK11B (human) (UniProt P21127)
# [20] = target: CAMK2B (human) (UniProt Q13554)
# [21] = target: ACVR1 (human) (UniProt Q04771)
# [22] = test system: EGFR (human), P00533 [P753S; 747-752 del]
# [23] = target: PDPK1 (human) (UniProt O15530)
# [24] = target: CDK3 (human) (UniProt Q00526)
# [25] = target: CAMK2A (human) (UniProt Q9UQM7)
# [26] = target: AURKC (human) (UniProt Q9UQB9)
# [27] = target: FGFR3 (human) (UniProt P22607)
# [28] = target: MAP3K5 (human) (UniProt Q99683)
# [29] = target: BRSK2 (human) (UniProt Q8IWQ3)
# [30] = target: MAP2K2 (human) (UniProt P36507)
# [31] = target: PRKG2 (human) (UniProt Q13237)
# [32] = target: GSK3B (human) (UniProt P49841)
# [33] = target: MAP3K12 (human) (UniProt Q12852)
# [34] = target: CDK16 (human) (UniProt Q00536)
# [35] = target: CDK19 (human) (UniProt Q9BWU1)
# [36] = target: PAK7 (human) (UniProt Q9P286)
# [37] = target: ADCK4 (human) (UniProt Q96D53)
# [38] = target: CSNK2A2 (human) (UniProt P19784)
# [39] = target: NEK2 (human) (UniProt P51955)
# [40] = target: CSNK1A1 (human) (UniProt P48729)
# [41] = target: EPHB2 (human) (UniProt P29323)
# [42] = target: PRKCH (human) (UniProt P24723)
# CSNK2A2 (human), sequence (P19784 whole entry, looked up): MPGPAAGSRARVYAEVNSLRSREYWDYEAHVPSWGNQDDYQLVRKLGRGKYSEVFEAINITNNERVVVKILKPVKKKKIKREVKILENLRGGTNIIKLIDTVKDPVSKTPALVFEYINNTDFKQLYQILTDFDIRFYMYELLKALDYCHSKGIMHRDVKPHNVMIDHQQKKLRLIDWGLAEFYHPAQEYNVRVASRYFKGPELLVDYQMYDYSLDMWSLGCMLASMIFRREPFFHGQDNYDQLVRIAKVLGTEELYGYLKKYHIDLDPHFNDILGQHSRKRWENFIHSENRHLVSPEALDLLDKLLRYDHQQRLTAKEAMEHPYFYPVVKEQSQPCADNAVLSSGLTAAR
# MAP3K5 (human), sequence (Q99683 whole entry, looked up): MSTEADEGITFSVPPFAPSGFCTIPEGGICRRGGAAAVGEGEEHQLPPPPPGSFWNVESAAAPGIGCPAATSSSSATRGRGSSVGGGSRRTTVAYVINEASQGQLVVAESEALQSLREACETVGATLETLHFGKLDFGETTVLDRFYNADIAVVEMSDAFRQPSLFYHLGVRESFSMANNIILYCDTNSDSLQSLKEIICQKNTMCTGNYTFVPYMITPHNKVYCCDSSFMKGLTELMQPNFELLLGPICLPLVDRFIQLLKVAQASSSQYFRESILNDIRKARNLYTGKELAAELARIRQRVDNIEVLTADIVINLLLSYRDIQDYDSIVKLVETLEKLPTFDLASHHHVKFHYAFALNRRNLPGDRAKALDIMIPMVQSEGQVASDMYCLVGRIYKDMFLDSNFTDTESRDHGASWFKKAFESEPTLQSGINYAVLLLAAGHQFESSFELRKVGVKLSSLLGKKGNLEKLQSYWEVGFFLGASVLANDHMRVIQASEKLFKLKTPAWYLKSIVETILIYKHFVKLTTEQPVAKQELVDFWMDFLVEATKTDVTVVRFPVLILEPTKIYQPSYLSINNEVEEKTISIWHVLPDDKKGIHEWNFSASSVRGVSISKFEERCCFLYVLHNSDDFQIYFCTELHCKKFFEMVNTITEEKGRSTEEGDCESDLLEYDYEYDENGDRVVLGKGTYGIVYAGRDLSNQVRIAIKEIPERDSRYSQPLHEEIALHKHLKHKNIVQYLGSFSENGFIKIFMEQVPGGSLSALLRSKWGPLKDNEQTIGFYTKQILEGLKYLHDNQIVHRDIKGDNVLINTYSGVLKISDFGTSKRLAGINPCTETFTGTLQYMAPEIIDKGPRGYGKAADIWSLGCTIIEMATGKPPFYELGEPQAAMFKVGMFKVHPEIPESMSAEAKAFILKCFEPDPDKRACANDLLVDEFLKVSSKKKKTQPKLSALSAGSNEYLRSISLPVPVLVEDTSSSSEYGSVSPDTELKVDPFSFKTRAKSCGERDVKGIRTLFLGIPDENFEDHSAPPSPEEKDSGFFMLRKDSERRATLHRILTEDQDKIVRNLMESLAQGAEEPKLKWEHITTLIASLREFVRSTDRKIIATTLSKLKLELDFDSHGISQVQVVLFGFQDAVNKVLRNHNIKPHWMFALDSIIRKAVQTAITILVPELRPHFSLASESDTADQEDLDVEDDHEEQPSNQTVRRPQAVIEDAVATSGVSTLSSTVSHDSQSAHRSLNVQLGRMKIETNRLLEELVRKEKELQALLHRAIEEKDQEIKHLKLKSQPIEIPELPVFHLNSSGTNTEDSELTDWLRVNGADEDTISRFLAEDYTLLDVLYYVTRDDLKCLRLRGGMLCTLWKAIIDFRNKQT
# CDC42BPA (human), sequence (Q5VT25 whole entry, looked up): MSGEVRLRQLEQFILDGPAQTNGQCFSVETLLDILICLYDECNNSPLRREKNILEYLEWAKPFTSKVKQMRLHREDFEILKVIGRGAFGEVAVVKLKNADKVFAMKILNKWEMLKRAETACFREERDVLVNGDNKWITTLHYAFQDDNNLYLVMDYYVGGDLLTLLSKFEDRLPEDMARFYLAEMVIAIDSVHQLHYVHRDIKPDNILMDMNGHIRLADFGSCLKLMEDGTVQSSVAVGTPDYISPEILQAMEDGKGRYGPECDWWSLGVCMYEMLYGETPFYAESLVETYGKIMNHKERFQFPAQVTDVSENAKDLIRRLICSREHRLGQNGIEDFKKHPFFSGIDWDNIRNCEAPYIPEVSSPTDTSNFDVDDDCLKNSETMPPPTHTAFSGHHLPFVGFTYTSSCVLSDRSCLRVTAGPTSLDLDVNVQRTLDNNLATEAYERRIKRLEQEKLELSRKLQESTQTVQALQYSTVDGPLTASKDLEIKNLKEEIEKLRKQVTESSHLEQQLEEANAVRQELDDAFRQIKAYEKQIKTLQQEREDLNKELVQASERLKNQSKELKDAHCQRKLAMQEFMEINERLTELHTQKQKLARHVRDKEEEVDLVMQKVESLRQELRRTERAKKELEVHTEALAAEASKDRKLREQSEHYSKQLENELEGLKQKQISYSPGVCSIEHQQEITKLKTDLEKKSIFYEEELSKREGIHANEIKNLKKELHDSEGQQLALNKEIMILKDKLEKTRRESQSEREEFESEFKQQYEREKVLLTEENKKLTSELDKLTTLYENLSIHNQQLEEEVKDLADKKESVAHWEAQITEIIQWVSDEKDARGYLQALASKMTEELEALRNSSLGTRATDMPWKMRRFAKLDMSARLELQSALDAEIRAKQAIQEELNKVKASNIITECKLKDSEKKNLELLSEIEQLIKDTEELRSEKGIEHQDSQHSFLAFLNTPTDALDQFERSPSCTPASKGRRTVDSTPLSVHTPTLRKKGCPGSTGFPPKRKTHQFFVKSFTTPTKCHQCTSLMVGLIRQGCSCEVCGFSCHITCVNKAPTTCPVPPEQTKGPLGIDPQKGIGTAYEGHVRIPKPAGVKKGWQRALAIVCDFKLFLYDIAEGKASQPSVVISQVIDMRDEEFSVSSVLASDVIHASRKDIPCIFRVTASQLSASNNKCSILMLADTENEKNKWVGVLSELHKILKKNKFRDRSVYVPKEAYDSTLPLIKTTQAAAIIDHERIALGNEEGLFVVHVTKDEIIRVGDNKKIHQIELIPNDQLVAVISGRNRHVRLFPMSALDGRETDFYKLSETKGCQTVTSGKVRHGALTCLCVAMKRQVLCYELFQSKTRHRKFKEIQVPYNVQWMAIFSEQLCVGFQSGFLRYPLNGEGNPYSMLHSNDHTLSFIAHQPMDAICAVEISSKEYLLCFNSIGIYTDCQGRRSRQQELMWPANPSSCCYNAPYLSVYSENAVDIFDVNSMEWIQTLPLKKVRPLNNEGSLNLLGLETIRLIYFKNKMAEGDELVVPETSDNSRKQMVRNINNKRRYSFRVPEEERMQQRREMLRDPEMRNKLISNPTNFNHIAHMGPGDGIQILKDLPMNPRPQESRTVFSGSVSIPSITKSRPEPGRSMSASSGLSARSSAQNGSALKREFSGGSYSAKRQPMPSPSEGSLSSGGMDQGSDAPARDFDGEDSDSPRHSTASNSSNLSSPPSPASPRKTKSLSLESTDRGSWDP
# EPHB2 (human), sequence (P29323 whole entry, looked up): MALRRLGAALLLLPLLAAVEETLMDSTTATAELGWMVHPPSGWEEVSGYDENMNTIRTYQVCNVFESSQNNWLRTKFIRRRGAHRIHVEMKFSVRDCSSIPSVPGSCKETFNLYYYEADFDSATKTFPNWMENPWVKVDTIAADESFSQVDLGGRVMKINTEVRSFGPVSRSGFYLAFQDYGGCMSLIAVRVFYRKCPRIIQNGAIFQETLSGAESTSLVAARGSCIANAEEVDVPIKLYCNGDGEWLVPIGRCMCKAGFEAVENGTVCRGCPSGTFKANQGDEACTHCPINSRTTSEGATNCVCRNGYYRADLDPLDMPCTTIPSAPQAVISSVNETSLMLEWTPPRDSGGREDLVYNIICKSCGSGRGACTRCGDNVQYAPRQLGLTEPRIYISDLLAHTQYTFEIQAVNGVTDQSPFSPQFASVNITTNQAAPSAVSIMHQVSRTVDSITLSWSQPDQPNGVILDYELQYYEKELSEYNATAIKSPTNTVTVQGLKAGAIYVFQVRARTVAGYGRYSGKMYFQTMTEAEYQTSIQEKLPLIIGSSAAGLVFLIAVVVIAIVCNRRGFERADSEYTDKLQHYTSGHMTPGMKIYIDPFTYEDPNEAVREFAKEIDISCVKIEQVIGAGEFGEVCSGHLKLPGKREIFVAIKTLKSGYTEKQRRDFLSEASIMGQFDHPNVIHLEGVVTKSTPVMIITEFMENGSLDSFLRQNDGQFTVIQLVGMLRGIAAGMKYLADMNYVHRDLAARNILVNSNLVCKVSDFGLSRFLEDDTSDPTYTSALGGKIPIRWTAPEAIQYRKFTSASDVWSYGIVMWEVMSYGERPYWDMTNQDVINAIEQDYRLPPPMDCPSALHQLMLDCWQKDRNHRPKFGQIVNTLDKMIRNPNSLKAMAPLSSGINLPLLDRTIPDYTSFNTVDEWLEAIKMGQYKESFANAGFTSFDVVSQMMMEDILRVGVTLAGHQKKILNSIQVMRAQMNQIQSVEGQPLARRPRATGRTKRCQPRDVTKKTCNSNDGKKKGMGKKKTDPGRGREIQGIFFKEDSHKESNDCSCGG
# CDK7 (human), sequence (P50613 whole entry, looked up): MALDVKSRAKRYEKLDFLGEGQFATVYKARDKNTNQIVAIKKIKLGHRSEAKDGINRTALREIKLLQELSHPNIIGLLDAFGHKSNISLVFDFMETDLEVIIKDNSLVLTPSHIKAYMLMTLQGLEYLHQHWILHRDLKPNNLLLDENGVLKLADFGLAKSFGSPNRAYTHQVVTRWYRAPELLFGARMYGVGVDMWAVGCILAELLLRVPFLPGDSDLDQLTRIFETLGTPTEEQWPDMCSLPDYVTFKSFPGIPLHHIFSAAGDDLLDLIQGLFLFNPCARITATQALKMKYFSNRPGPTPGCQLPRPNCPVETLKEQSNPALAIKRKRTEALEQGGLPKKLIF
smiles,measurement,setting,value
Cc1cc([C@@H](C)Nc2ccccc2C(=O)O)c2nc(N3CCOCC3)cc(=O)n2c1,"kinase still bound, per cent of control",[1],100%
same,"kinase still bound, per cent of control",[2],100%
same,"kinase still bound, per cent of control",[3],100%
same,"kinase still bound, per cent of control",[4],90%
same,"kinase still bound, per cent of control",[5],83%
same,"kinase still bound, per cent of control",[6],65%
same,"kinase still bound, per cent of control",[7],88%
same,"kinase still bound, per cent of control",[8],100%
same,"kinase still bound, per cent of control",[9],100%
same,"kinase still bound, per cent of control",[10],95%
same,"kinase still bound, per cent of control",[11],100%
same,"kinase still bound, per cent of control",[12],100%
same,"kinase still bound, per cent of control",[13],100%
same,"kinase still bound, per cent of control",[14],100%
same,"kinase still bound, per cent of control",[15],100%
same,"kinase still bound, per cent of control",[16],57%
same,"kinase still bound, per cent of control",[17],83%
same,"kinase still bound, per cent of control",[18],95%
same,"kinase still bound, per cent of control",[19],100%
same,"kinase still bound, per cent of control",[20],89%
same,"kinase still bound, per cent of control",[21],100%
same,"kinase still bound, per cent of control",[22],100%
same,"kinase still bound, per cent of control",[23],100%
same,"kinase still bound, per cent of control",[24],92%
same,"kinase still bound, per cent of control",[25],66%
same,"kinase still bound, per cent of control",[26],91%
same,"kinase still bound, per cent of control",[27],100%
same,"kinase still bound, per cent of control",[28],100%
same,"kinase still bound, per cent of control",[29],94%
same,"kinase still bound, per cent of control",[30],98%
same,"kinase still bound, per cent of control",[31],100%
same,"kinase still bound, per cent of control",[32],100%
same,"kinase still bound, per cent of control",[33],98%
same,"kinase still bound, per cent of control",[34],100%
same,"kinase still bound, per cent of control",[35],100%
same,"kinase still bound, per cent of control",[36],92%
same,"kinase still bound, per cent of control",[37],95%
same,"kinase still bound, per cent of control",[38],64%
same,"kinase still bound, per cent of control",[39],100%
same,"kinase still bound, per cent of control",[40],100%
same,"kinase still bound, per cent of control",[41],100%
same,"kinase still bound, per cent of control",[42],95%
